Key:
[1] = molecular target: Substance-K receptor (Homo sapiens) (UniProt P21452); assay: Inhibition of Tachykinin NK2 at 10 µM in the Eurofins-Panlabs radioligand binding assay (Eurofins_assay_255600); set-up: ligand concentration 0.5 nM; settings: Compound concentration 10.0 uM
[2] = molecular target: Mu-type opioid receptor (Homo sapiens) (UniProt P35372); settings: Compound concentration 10.0 uM
[3] = system: Progesterone receptor (Bos taurus); assay: Progesterone Eurofins-Panlabs radioligand binding assay; settings: Compound concentration 10.0 uM
[4] = molecular target: L-type calcium channel, benzothiazepine site (Cav1.2 alpha-1C) (Homo sapiens, UniProt Q13936); assay: Inhibition of Calcium Channel L-Type, Benzothiazepine at 10 µM in the Eurofins-Panlabs radioligand binding assay (Eurofins_assay_214510); set-up: ligand concentration 2 nM, non-specific ligand with concentration 10 µM Diltiazem, incubation time 3h, incubation temperature 4 °C; settings: male, Wistar, rat, rat whole brain preparation, probe [3H] Diltiazem, 2 nM; compound concentration 10 uM; target entry is the homologue from another species
[5] = molecular target: C-X-C chemokine receptor type 2 (Homo sapiens) (UniProt P25025); assay: Inhibition of Chemokine CXCR2 (IL-8RB) at 10 µM in the Eurofins-Panlabs radioligand binding assay (Eurofins_assay_244500); settings: Compound concentration 10.0 uM
[6] = molecular target: T1, Alpha-2A adrenergic receptor (Homo sapiens) (UniProt P08913); assay: Adrenergic alpha2A Eurofins-Panlabs radioligand binding assay; set-up: ligand concentration 1 nM, non-specific ligand with concentration 10 µM WB-4101, incubation time 60 min, incubation temperature 25 °C; settings: Compound concentration 10.0 uM
T1 sequence (whole entry): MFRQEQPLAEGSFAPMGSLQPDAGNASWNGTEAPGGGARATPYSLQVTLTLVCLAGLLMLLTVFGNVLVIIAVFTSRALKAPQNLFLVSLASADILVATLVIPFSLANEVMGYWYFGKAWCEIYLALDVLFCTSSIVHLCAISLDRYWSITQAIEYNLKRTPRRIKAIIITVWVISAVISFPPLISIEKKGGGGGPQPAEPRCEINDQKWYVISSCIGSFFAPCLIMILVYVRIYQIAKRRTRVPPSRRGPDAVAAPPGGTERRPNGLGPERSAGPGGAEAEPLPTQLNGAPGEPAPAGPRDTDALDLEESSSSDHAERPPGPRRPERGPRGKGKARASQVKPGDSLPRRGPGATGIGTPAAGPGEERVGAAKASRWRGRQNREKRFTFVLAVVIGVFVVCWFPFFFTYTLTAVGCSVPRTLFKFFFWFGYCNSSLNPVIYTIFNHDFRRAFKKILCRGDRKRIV

[7] = molecular target: Glutamate receptor ionotropic, kainate (Rattus norvegicus) (UniProt P22756+Q01812+P42260+P42264+Q63273); assay: Inhibition of Glutamate, Kainate at 10 µM in the Eurofins-Panlabs radioligand binding assay (Eurofins_assay_232700); settings: Compound concentration 10.0 uM
[8] = Inhibition of Platelet-Derived Growth Factor (PDGF) at 10 µM in the Eurofins-Panlabs radioligand binding assay (Eurofins_assay_265200); settings: Compound concentration 10 uM; Detection method Radioligand Binding; Incubation temperature 25 °C; Incubation time 45 min; Ligand [3H]PDGF; Ligand concentration 0.02 nM; Non-specific ligand with concentration 10 nM PDGF; Source of protein Swiss mouse 3T3 embryo cells
[9] = molecular target: Sigma non-opioid intracellular receptor 1 (Homo sapiens) (UniProt Q99720); assay: Sigma 1 Eurofins-Panlabs radioligand binding assay; set-up: ligand concentration 8 nM; settings: Compound concentration 10.0 uM
[10] = molecular target: Adenosine receptor A1 (Homo sapiens) (UniProt P30542); settings: Compound concentration 10.0 uM
[11] = molecular target: T2, Muscarinic acetylcholine receptor M2 (Homo sapiens) (UniProt P08172); settings: Compound concentration 10.0 uM
T2 sequence (whole entry): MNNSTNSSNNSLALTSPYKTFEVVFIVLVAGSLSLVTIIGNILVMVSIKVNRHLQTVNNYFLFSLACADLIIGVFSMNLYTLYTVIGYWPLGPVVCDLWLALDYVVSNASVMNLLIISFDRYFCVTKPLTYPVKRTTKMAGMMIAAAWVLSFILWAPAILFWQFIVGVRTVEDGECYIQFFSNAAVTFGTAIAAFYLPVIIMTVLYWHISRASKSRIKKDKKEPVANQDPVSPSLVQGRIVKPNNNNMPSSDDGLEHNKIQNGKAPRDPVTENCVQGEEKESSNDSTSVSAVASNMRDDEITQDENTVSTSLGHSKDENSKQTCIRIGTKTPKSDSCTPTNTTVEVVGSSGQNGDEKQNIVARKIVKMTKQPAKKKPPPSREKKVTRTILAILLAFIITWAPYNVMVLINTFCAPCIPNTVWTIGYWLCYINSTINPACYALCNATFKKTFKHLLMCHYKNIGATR

[12] = organism: Homo sapiens; assay: Inhibition of Phosphodiesterase PDE4 at compound concentration of 10.0 uM in the Eurofins-Panlabs enzyme assay (Eurofins_assay_154000); assay type: protein assay; set-up: substrate with concentration 1.01 uM [3 H]cAMP + cAMP, incubation time 20 min, incubation temperature 25 C; settings: Compound concentration 10.0 uM
[13] = molecular target: Endothelin-1 receptor (Homo sapiens) (UniProt P25101); settings: Compound concentration 10.0 uM
[14] = molecular target: Glucocorticoid receptor (Homo sapiens) (UniProt P04150); settings: Compound concentration 10.0 uM
[15] = molecular target: GABA-A receptor; anion channel (Rattus norvegicus) (UniProt O09028+P15431+P18506+P18508+P19969+P20236+P23574+P23576+P28471+P28473+P30191+P62813+P63079+P63138+Q91ZM7+Q9ES14); assay: Inhibition of GABAA, Muscimol, Central at 10 µM in the Eurofins-Panlabs radioligand binding assay (Eurofins_assay_226500); assay type: protein-complex assay; settings: Compound concentration 10.0 uM
[16] = molecular target: Sodium-dependent dopamine transporter (Homo sapiens) (UniProt Q01959); settings: Compound concentration 10.0 uM
[17] = molecular target: Melanocortin receptor 5 (Homo sapiens) (UniProt P33032); assay: Inhibition of Melanocortin MC5 at 10 µM in the Eurofins-Panlabs radioligand binding assay (Eurofins_assay_251400); set-up: ligand concentration 0.035 nM; settings: Compound concentration 10.0 uM
[18] = molecular target: Sodium-dependent serotonin transporter (Homo sapiens) (UniProt P31645); settings: Compound concentration 10.0 uM
[19] = organism: Sus scrofa; assay: Inhibition of ATPase, Na+/K+, Heart at compound concentration of 10.0 uM in the Eurofins-Panlabs enzyme assay (Eurofins_assay_107710); set-up: substrate with concentration; settings: Compound concentration 10.0 uM
[20] = organism: Homo sapiens; assay: Inhibition of Tumor Necrosis Factor (TNF), Non-Selective at 10 µM in the Eurofins-Panlabs radioligand binding assay (Eurofins_assay_286510); settings: Compound concentration 10.0 uM
[21] = molecular target: D(2) dopamine receptor (Homo sapiens) (UniProt P14416); settings: Compound concentration 10.0 uM
D(2) dopamine receptor (Homo sapiens), sequence (P14416 whole entry): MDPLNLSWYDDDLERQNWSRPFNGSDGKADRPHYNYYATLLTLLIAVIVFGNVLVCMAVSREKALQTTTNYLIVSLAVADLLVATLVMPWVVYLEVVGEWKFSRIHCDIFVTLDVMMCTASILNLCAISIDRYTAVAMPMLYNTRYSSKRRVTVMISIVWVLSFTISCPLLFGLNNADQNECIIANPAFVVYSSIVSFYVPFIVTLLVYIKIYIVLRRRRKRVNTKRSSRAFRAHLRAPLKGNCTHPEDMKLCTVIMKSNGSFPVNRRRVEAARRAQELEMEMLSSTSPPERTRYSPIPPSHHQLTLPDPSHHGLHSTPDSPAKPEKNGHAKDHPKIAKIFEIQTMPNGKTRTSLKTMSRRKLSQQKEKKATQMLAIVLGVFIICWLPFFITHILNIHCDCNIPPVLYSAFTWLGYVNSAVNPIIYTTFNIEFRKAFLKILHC

Sigma non-opioid intracellular receptor 1 (Homo sapiens), sequence (Q99720 whole entry): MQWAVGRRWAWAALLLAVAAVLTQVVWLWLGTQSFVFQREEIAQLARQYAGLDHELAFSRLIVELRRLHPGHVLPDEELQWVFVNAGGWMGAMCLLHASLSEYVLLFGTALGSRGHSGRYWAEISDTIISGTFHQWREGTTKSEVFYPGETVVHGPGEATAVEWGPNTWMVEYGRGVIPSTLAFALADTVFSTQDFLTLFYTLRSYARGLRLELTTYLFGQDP
Substance-K receptor (Homo sapiens), sequence (P21452 whole entry): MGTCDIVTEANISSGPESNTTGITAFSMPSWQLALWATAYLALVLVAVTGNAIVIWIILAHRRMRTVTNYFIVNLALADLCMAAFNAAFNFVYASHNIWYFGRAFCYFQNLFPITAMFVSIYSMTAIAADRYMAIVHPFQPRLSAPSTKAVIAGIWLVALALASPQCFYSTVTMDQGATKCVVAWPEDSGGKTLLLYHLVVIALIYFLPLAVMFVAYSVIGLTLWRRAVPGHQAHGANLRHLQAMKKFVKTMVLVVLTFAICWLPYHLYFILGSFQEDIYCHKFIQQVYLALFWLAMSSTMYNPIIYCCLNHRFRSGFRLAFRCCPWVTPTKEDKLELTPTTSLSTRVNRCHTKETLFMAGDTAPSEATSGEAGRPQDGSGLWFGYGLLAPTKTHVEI
Endothelin-1 receptor (Homo sapiens), sequence (P25101 whole entry): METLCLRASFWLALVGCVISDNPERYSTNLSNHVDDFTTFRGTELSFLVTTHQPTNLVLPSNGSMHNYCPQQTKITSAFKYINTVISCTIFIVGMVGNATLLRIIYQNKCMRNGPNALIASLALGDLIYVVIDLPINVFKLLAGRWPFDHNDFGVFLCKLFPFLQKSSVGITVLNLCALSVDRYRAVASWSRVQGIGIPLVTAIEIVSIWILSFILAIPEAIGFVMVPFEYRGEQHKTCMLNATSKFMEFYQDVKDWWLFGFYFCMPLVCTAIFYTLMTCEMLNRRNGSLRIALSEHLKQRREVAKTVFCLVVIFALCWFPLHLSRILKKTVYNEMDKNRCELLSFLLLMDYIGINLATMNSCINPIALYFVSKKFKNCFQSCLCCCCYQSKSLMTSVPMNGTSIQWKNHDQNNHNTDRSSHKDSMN
Mu-type opioid receptor (Homo sapiens), sequence (P35372 whole entry): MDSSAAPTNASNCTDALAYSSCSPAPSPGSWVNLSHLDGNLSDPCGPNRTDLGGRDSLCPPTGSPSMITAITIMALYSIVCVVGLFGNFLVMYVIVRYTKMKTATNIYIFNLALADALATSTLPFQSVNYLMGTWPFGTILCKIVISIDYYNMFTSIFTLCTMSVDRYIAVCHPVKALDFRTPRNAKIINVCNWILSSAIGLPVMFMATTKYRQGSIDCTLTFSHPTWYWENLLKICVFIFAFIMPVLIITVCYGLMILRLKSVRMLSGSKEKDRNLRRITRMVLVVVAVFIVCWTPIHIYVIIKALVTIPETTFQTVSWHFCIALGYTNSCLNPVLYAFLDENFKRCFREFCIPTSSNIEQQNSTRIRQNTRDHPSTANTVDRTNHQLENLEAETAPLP
Melanocortin receptor 5 (Homo sapiens), sequence (P33032 whole entry): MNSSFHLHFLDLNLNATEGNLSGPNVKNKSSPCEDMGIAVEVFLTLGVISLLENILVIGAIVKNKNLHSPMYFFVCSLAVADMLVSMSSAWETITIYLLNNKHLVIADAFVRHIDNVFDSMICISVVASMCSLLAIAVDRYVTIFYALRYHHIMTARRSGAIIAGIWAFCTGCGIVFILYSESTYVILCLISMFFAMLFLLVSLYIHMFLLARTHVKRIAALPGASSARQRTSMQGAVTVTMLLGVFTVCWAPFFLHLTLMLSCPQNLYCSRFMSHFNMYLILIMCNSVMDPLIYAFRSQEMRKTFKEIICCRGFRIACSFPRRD
Adenosine receptor A1 (Homo sapiens), sequence (P30542 whole entry): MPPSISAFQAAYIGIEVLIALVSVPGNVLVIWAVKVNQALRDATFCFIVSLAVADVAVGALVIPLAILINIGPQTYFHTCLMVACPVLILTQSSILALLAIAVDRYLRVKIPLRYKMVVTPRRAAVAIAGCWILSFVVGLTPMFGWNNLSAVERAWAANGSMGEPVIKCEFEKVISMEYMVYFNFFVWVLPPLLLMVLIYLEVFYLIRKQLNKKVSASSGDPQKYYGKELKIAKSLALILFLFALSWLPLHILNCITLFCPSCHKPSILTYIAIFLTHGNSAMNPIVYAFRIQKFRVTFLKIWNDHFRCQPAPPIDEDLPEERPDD
Glucocorticoid receptor (Homo sapiens), sequence (P04150 whole entry): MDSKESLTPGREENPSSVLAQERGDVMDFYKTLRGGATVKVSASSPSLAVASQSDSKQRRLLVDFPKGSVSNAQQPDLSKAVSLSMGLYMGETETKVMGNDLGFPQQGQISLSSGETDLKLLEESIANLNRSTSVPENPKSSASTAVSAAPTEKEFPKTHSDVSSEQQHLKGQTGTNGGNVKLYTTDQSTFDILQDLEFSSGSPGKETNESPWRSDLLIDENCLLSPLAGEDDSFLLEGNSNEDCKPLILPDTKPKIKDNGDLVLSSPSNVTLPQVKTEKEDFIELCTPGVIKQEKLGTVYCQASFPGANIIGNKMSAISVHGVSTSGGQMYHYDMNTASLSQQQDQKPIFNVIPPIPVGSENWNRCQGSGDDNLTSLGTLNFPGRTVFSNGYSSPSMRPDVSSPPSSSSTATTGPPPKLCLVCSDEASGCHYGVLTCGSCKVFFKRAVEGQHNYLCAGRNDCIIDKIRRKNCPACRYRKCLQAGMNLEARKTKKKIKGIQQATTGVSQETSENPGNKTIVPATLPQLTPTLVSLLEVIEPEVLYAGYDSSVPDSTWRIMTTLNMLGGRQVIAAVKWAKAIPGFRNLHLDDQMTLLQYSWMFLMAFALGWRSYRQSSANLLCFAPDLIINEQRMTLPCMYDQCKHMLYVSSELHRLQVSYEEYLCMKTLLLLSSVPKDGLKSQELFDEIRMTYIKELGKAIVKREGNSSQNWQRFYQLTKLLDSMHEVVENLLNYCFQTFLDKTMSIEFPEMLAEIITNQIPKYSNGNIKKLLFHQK
Sodium-dependent serotonin transporter (Homo sapiens), sequence (P31645 whole entry, looked up): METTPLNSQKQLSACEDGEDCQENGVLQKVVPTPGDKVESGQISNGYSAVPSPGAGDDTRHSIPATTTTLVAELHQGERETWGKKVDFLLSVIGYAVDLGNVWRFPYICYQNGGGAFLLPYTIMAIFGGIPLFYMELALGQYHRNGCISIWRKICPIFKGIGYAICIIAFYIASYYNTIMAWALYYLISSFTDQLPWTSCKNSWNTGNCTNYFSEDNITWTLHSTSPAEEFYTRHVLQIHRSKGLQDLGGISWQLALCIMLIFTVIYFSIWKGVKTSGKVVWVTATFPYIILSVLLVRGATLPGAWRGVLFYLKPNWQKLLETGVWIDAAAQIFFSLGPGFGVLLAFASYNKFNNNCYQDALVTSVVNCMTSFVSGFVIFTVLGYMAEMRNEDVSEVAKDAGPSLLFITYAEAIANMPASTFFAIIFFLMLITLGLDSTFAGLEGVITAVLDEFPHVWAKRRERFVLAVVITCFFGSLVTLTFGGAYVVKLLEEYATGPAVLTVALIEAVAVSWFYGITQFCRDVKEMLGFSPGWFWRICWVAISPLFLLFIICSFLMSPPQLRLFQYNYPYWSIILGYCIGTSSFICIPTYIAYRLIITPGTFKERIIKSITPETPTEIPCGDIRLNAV
C-X-C chemokine receptor type 2 (Homo sapiens), sequence (P25025 whole entry): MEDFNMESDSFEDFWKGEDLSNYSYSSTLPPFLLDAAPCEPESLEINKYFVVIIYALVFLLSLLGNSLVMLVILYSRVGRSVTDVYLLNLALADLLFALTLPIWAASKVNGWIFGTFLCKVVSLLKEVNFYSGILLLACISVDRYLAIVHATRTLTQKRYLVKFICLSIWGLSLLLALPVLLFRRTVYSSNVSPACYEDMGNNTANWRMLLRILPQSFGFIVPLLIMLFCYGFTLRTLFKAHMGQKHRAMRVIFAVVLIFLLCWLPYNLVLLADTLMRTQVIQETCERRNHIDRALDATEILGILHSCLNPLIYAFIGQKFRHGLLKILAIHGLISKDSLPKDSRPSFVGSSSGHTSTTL
Sodium-dependent dopamine transporter (Homo sapiens), sequence (Q01959 whole entry): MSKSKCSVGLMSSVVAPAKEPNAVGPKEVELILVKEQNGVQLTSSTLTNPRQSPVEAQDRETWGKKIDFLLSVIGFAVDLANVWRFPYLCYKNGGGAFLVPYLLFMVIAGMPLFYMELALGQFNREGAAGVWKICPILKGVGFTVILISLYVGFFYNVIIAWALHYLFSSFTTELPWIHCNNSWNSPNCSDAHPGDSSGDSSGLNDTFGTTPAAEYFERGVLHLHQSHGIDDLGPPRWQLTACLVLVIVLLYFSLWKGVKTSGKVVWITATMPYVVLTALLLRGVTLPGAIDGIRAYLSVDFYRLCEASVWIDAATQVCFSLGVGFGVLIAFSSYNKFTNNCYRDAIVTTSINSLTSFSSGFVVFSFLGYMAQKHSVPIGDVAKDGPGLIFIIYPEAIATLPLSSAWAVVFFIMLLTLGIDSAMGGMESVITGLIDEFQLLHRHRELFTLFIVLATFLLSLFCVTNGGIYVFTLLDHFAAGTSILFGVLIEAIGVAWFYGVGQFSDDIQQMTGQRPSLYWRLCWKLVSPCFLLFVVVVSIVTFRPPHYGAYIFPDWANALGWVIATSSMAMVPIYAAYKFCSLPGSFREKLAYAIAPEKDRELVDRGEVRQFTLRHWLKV

Compound: O=C(NCc1ncc(C(F)(F)F)cc1Cl)c1ccc2c(c1)C1(CCS(=O)(=O)CC1)[C@H](C1CC1)N2S(=O)(=O)c1ccc(F)cc1 [BAY-784]
- inhibition [1]: 7%
- inhibition [2]: 16%
- inhibition [3]: 0%
- inhibition at 3 h, 10 µM [4]: 29% (not active)
- inhibition [5]: 14%
- inhibition [6]: -1%
- inhibition [7]: 1%
- inhibition at 10 µM [8]: -4% (not active)
- inhibition [9]: 15%
- inhibition [10]: 15%
- inhibition [11]: -3%
- inhibition [12]: 2%
- inhibition [13]: 16%
- inhibition [14]: 13%
- inhibition [15]: 7%
- inhibition [16]: 25%
- inhibition [17]: 27%
- inhibition [18]: 10%
- inhibition [19]: 0%
- inhibition [20]: 22%

Compound: O=C(NCc1ncc(C(F)(F)F)cc1Cl)c1ccc2c(c1)C1(CCS(=O)(=O)CC1)[C@@H](C1CC1)N2S(=O)(=O)c1ccc(F)cc1 [BAY-786]
- inhibition [21]: -8.4%

— ChEMBL document CHEMBL4507266, “Data for DCP probe BAY-784” (2021)
